Experimental data from patent US20250009819A1, “NOVEL PROBIOTICS AND USE THEREOF” (PBLBIOLAB CO., LTD., priority 2021, published 2025).

Columns and labels:
Format in all cases: in vivo, C57BL/6 male mice
[1] = tested on: animals with LPS-induced cognitive impairment; assay: Animals with LPS-induced cognitive impairment: cognitive improvement, hippocampus indicators; conditions: LPS-treated mice, 1×10^9 CFU/mouse or sulfasalazine 50 mg/kg once a day for 5 days
Procedure: (§1) Hippocampus, colon, and spleen tissues were homogenized by adding 1 ml of RIPA buffer (Gibco) containing protease inhibitor cocktail and centrifuged at 4° C., 13000 rpm for 15 min to obtain supernatant. Indicators of this supernatant were measured using an ELISA kit (Ebioscience).
(§2) The Y-shaped maze measurement device is shaped like an alphabetical Y with three arms extending from it, each arm being 25 cm long, 14 cm high, 5 cm wide, and positioned at the same angle. At the end of one arm of the Y-shaped maze, the animal was placed with its head facing out and allowed to freely navigate the arm for 8 minutes. The animal's movements were recorded, and reported as arm entries when the animal entered the arm with its hind paw, and the animal's movement was represented by an alternation, which was defined as one alternation when the animal passed through the three arms in succession. The amount of spontaneous alternation behavior was expressed as a percentage between the actual number of alternations and the maximum possible number of alternations (i.e., the total number of […] minus 2).
(§3) The experiment was conducted in a box (40×40×40 cm) made so that the outside could not be seen from the inside. Two objects (A, A′) of the same shape and size were fixedly disposed in a box and the mouse was relocated to start from the center of the box. Then, the number of times the mouse made contact with the two objects was recorded for 10 minutes. After 24 hours, one of the two objects was replaced with a new object (A, B). Then, one original object and one new object were prepared, and the animal's exploration time was measured.
C57BL/6 male mice (5 weeks old, 19-21 g) were divided (6 mice in each group) and acclimatized to the laboratory for 1 week. To induce intestinal and brain diseases, mice were intraperitoneally administered Escherichia coli-derived LPS (10 μg/kg) once daily for 5 days. […] Experimental animals in the normal group were orally administered with a physiological saline solution, which was used to suspend lactic acid bacteria. The day following the conclusion of sample administration, the experimental animals were sacrificed, and samples from the brain hippocampus, colon, and spleen were collected. In the Hippocampus, inflammatory indicators, such as IFN-γ, TNF-α, and IL-10, were measured using ELISA. In the colon, intestinal length and inflammatory indicators, such as IFN-γ, TNF-α, and IL-10, were measured. In the spleen, Th1 cells and Treg cells were measured by FACS (Fluorescence-Activated Cell Sorting).

[2] = tested on: immunosuppressed animals induced by anticancer drug (cyclophosphamide); assay: Immunosuppressed animals induced by cyclophosphamide: improvement effect in spleen; conditions: cyclophosphamide (CP)-treated mice, 1×10^9 CFU/mouse orally once a day for 5 days; for Foxp3 (fold change) / Tbet (fold change) / Tbet/Foxp3: spleen qPCR; for IFN-γ/IL-10 / IL-10 / Interferon (IFN)-γ / NK cell cytoxicity (%) / Phagocytosis (%) / TNF-a/IL-10 / TNF-α: spleen
Procedure: as §1
(§4) mRNA was isolated from spleen tissue using the RNA Isolation Kit: RNeasy Mini Kit (QIAGEN), converted to cDNA, and qPCR was performed to measure the expression rates of Tbet, Foxp3, and glyceraldehyde 3-phosphate dehydrogenase (GAPDH). The reaction product was first treated at 95° C. for 30 seconds, followed by 38 cycles of 5 seconds at 95° C. and 30 seconds at 72° C. for analysis.
(§5) C57BL/6 male mice (5 weeks old, 19-21 g) were divided (6 mice in each group) and acclimatized to the laboratory for 1 week. To induce intestinal and brain diseases, the mice were administered with cyclophosphamide (CP, 150 mg/kg, dissolved in physiological saline) for 1 day, rested for 1 day, and then administered intraperitoneally the next day. Meanwhile, the normal group was administered intraperitoneally with 0.1 ml of physiological saline. […] The day following the conclusion of sample administration, the experimental animals were sacrificed, and samples from the brain hippocampus, colon, and spleen were collected. In the Hippocampus, inflammatory indicators, such as IFN-γ, TNF-α, and IL-10, were measured using ELISA. In the colon, intestinal length and inflammatory indicators, such as IFN-γ, TNF-α, and IL-10, were measured. In the spleen, Th1 cells and Treg cells were measured by FACS (Fluorescence-Activated Cell Sorting).

[3] = tested on: immunosuppressed animals induced by anticancer drug (cyclophosphamide); assay: Immunosuppressed animals induced by cyclophosphamide: cognitive improvement, hippocampus indicators; conditions: cyclophosphamide (CP)-treated mice, 1×10^9 CFU/mouse orally once a day for 5 days; for IFN-γ/IL-10 / IL-10 / Interferon (IFN)-γ / TNF-a/IL-10 / TNF-α: hippocampus
Procedure: as §1, §2, §3, §5

[4] = tested on: healthy animal; assay: Healthy animal: spleen parameters; conditions: healthy mice, 1×10^9 CFU/mouse orally once a day for 5 days; for Foxp3 (fold change) / Tbet (fold change) / Tbet/Foxp3: spleen qPCR; for IFN-γ/IL-10 / IL-10 / Interferon (IFN)-γ / NK cell cytoxicity (%) / Phagocytosis (%) / TNF-a/IL-10 / TNF-α: spleen
Procedure: as §1, §4
C57BL/6 male mice (5 weeks old, 19-21 g) were divided (6 mice in each group) and acclimatized to the laboratory for 1 week. The mice were orally administered once a day for 5 days with lactic acid bacteria as a test sample suspended in physiological saline solution at a concentration of 1×10^9 CFU per mouse (NK210 alone (LR): 1×10^9 CFU/mouse, NK219 alone (BL): 1×10^9 CFU/mouse, combined (210+219): 210, 8×10^8 CFU/mouse and 219, 2×10^8 CFU/mouse). […] The day following the conclusion of sample administration, the experimental animals were sacrificed, and samples from the brain hippocampus, colon, and spleen were collected. In the Hippocampus, inflammatory indicators, such as IFN-γ, TNF-α, and IL-10, were measured using ELISA. In the colon, intestinal length and inflammatory indicators, such as IFN-γ, TNF-α, and IL-10, were measured. In the spleen, Th1 cells and Treg cells were measured by FACS (Fluorescence-Activated Cell Sorting).

Row | Substance | Exoporation (%) (in NOR task) [1] | Spontaneous alteration (%) (in Y-maze task) [1] | IFN-γ/IL-10 ([1]; hippocampus) | IL-10 ([1]; hippocampus) | Interferon (IFN)-γ ([1]; hippocampus) | TNF-α/IL-10 ([1]; hippocampus) | Foxp3 (fold change) [2] | Tbet (fold change) [2] | Tbet/Foxp3 [2] | IFN-γ/IL-10 [2] | IL-10 [2] | Interferon (IFN)-γ [2] | NK cell cytoxicity (%) [2] | Phagocytosis (%) [2] | TNF-a/IL-10 [2] | TNF-α [2] | Exoporation (%) (in NOR task) [3] | Spontaneous alteration (%) (in Y-maze task) [3] | IFN-γ/IL-10 [3] | IL-10 [3] | other results
1 | Bifidobacterium longum NK219 | 76.97% | 71.06% | 0.50 | 47.71 pg/mg | 24.09 pg/mg | 0.24 | 0.36 fold change | 0.95 fold change | 2.49 | 2.11 | 2.90 pg/mg | 5.56 pg/mg | 8.90% | 50.36% | 0.87 | 2.45 pg/mg | 78.34% | 71.26% | 0.44 | 53.74 pg/mg | TNF-α ([1]; hippocampus): 10.72 pg/mg; Interferon (IFN)-γ [3]: 23.48 pg/mg; TNF-a/IL-10 [3]: 0.20; TNF-α [3]: 10.91 pg/mg; Foxp3 (fold change) [4]: 1.05 fold change; Tbet (fold change) [4]: 1.80 fold change; Tbet/Foxp3 [4]: 1.86; IFN-γ/IL-10 [4]: 1.35; IL-10 [4]: 9.29 pg/mg; Interferon (IFN)-γ [4]: 12.56 pg/mg; NK cell cytoxicity (%) [4]: 8.52%; Phagocytosis (%) [4]: 64.57%; TNF-a/IL-10 [4]: 0.38; TNF-α [4]: 3.49 pg/mg
2 | Lactobacillus rhamnosus NK210 | 76.00% | 69.36% | 0.52 | 46.94 pg/mg | 23.04 pg/mg | 0.23 | 0.37 fold change | 0.75 fold change | 2.05 | 2.31 | 3.31 pg/mg | 7.39 pg/mg | 8.26% | 58.65% | 1.04 | 3.20 pg/mg | 78.71% | 70.94% | 0.59 | 43.29 pg/mg | Interferon (IFN)-γ [3]: 25.30 pg/mg; TNF-a/IL-10 [3]: 0.24; TNF-α [3]: 10.44 pg/mg; Foxp3 (fold change) [4]: 1.05 fold change; Tbet (fold change) [4]: 1.41 fold change; Tbet/Foxp3 [4]: 1.45; IFN-γ/IL-10 [4]: 1.38; IL-10 [4]: 9.45 pg/mg; Interferon (IFN)-γ [4]: 13.02 pg/mg; NK cell cytoxicity (%) [4]: 6.65%; Phagocytosis (%) [4]: 50.03%; TNF-a/IL-10 [4]: 0.37; TNF-α [4]: 3.48 pg/mg
